Experimental data: patent US11434237B2, “Selective ligands for tau aggregates” (KARIN & STEN MORTSTEDT CBD SOLUTIONS AB, priority 2017, dated 2022)

Columns and labels:
Aβ and tau deposits [1] = assay: Co-staining of AD brain sections with PBB3 and Example Compound 3b; format: binding, human; settings: simultaneous 100 nM PBB3 and 100 nM Example Compound 3b
Description: Frozen brain sections (20 μm) were fixed in 96% EtOH, rehydrated in 50% EtOH and de-ionized water and then incubated in phosphate buffered saline (PBS, 10 mM phosphate, 140 mM NaCl, 2.7 mM KCl, pH 7.4) for 10 min. Solutions containing 100 nM PBB3 and 100 nM Example Compound 3b or 100 nM q-FTAA-CN and 100 nM Example Compound 3a in PBS were added to the sections. After 30 min, the sections were washed with PBS and mounted with Dako fluorescent mounting medium (Dako Cytomation, Glostrup, Denmark). The mounting medium was allowed to solidify over night before collecting emission spectra of the compounds bound to misfolded A ? and tau using an inverted LSM 780 confocal microscope (Carl Zeiss, Oberkochen, Germany) with excitation wavelengths at 405 nm (PBB3 and q-FTAA-CN) and 561 nm (Example Compound 3a and Example Compound 3b).

tau aggregates [2] = target: T1, tau aggregates (Homo sapiens, UniProt P10636); assay: Compound and antibody AT100 double staining of AD brain tissue sections; format: binding; settings: for Labelling of immune-positive NFTs and dystrophic neurites / Fluorescence from tested compound observed / Overlap between Fluorescence from tested compound and fluorescence from AT-100 observed: 100 nM compound; for Labelling of immune-positive NFTs and dystrophic neurites: AT100 co-staining, AD brain sections; for Fluorescence from tested compound observed / Overlap between Fluorescence from tested compound and fluorescence from AT-100 observed: human AD brain tissue sections; for Fluorescence from tested compound observed: double staining with tau antibody AT-100; for Overlap between Fluorescence from tested compound and fluorescence from AT-100 observed: tau antibody AT-100; for Fluorescence from AT-100 observed: signal of tau antibody AT-100 in the section stained with 100 nM of the compound
T1 construct: tissue sections (20 μm) from human AD brain; from tissue; host or cells: human AD brain tissue sections (20 μm)
Description: (§1) To achieve compound and antibody double staining of Aβ or tau aggregates, tissue sections (20 μm) from human AD brain were fixed in 70% EtOH at 4° C. for 3 min, rehydrated in distilled water and then incubated in PBS for 30 min. Sections were blocked and permeabilized in PBS with 5% normal goat serum and 0.1% triton X-100 (blocking buffer) for 1 h at room temperature (RT). Antibody 4G8 (Biolegend, San Diego, Calif., USA) reactive to Aβ, and AT100 (Thermo Fisher Scientific, Waltham, Mass., USA) directed against tau phosphorylated at […] (3) were diluted 1:500 and 1:1000, respectively, in blocking buffer and added to the sections. After 16 h incubation at 4° C. unbound antibody was removed by washing in PBS with 0.1% triton X-100 (PBS-T) 3×10 min. To visualize antibody binding to Aβ or tau aggregates sections were incubated with goat anti-mouse secondary antibody labelled with Alexa 647 (Thermo Fisher Scientific). The antibody was diluted 1:200 in blocking buffer and after 1 h incubation at RT sections were washed in PBS 3×10 min. Example Compound 3a, Example Compound 3b, Example Compound 3c, Example Compound 3d, Example Compound 3e, Example Compound 3f, Example Compound 3g, Example Compound 3h, Example Compound 3i, Example Compound 3j, Example Compound 3k, Example Compound 3m, Example Compound 3n, Example Compound 3o, Example Compound 3p, Example Compound 3q, Example Compound 3r, Example Compound 3s, Example Compound 3t, Example Compound 3u, Example Compound 8a, Comparative Example 1, Comparative Example 2, Comparative Example 3 and Comparative Example 4 were dissolved in DMSO to a concentration of 1.5 mM and then further diluted in PBS to a final concentration of 100 nM compound prior to staining. The tissue sections were then stained for 30 min at RT with these freshly prepared solutions containing 100 nM of the respective compound in PBS. After three washes in PBS the sections were mounted in Dako mounting medium for fluorescence (Dako Cytomation, Glostrup, Denmark) and allowed to dry overnight before analysis. Fluorescence images were collected using an inverted LSM 780 confocal microscope (Carl Zeiss, Oberkochen, Germany) with the following excitation/emission wavelengths optimized for each compound: 458/484-600 (Comparative Example 1, Comparative Example 3), 561/569-648 (Example Compound 3a, Example Compound 3b, Example Compound 3c, Example Compound 3d, Example Compound 3e, Example Compound 3f, Example Compound 3g, Example Compound 3h, Example Compound 3i, Example Compound 3j, Example Compound 3k, Example Compound 3m, Example Compound 3n, Example Compound 3o, Example Compound 3p, Example Compound 3q, Example Compound 3r, Example Compound 3s, Example Compound 3t, Example Compound 3u, Example Compound 8a, Comparative Example 2 and Comparative Example 4) and 633/638-755 (Alexa 647). To visualize autofluorescent lipofuscin excitation/emission wavelengths 405/410-480 or 405/410-514 were used.

Aβ aggregates = target: T2, Aβ aggregates (Homo sapiens, UniProt P05067); assay: Compound and antibody 4G8 double staining of AD brain tissue sections; format: binding; settings: for Overlap between Fluorescence from tested compound and fluorescence from 4G8 observed / Fluorescence from tested compound observed: 100 nM compound, human AD brain tissue sections; for Overlap between Fluorescence from tested compound and fluorescence from 4G8 observed: Aβ antibody 4G8; for Fluorescence from tested compound observed: double staining with Aβ antibody 4G8; for Fluorescence from 4G8 observed: signal of Aβ antibody 4G8 in the section stained with 100 nM of the compound
T2 construct: compound and antibody double staining of Aβ or tau aggregates; from tissue; host or cells: human AD brain tissue sections (20 μm)
Description: as §1

tau aggregates [3] = target: T1, tau aggregates; assay: Example Compound 3b staining of AD brain sections pre-incubated with q-FTAA-CN; format: binding; settings: FIG. 7H, pre-incubated with 1 μM q-FTAA-CN, then 10 nM Example Compound 3b
Description: (§2) Frozen brain sections (20 μm) were fixed in 96% EtOH, rehydrated in 50% EtOH and de-ionized water and then incubated in phosphate buffered saline (PBS, 10 mM phosphate, 140 mM NaCl, 2.7 mM KCl, pH 7.4) for 10 min. The sections were stained with solutions containing 1 ? M PBB3 or 1 ? M q-FTAA-CN in PBS for 30 min and after rinsing three times with PBS, the sections was stained with a solution containing 10 nM Example Compound 3b. After 30 min, the sections were washed with PBS and mounted with Dako fluorescent mounting medium (Dako Cytomation, Glostrup, Denmark). The mounting medium was allowed to solidify over night before collecting emission spectra of the compounds bound to misfolded Aβ and tau using an inverted LSM 780 confocal microscope (Carl Zeiss, Oberkochen, Germany) with excitation wavelengths at 405 nm (PBB3 and q-FTAA-CN) and 561 nm (Example Compound 3b).

tau aggregates [4] = target: T1, tau aggregates; assay: Example Compound 3b staining of AD brain sections pre-incubated with PBB3 or PBS; format: binding
Description: as §2

[5] = Excitation and emission spectra of compounds in DMSO or PBS; format: physicochemical; settings: 300 nM in DMSO or PBS pH 7.4
Description: Stock solutions of Example Compound 3a, Example Compound 3b, Example Compound 3c, Example Compound 3d and Example Compound 8a (1.5 mM in DMSO) were diluted to 300 nM in phosphate buffered saline (PBS, 10 mM phosphate, 140 mM NaCl, 2.7 mM KCl, pH 7.4) or DMSO. Excitation and emission spectra of the compounds were collected using an Infinite M1000 Pro microplate reader (Tecan, Männedorf, Switzerland).

Aβ and tau deposits [6] = assay: Staining of AD brain sections with PBB3 alone; format: binding, human; settings: 100 nM PBB3 alone in PBS pH 7.4, FIG. 6A
Description: as §2, with “100 nM” for “1 ? M”, “PBB3” for “PBB3 or 1 ? M q-FTAA-CN”, “with” for “with PBS, the sections was stained with a solution containing 10 nM Example Compound 3b. After 30 min, the sections were washed with”, “PBS” for “PBS and”, “compound” for “compounds”, “(PBB3).” for “(PBB3 and q-FTAA-CN) and 561 nm (Example Compound 3b).”

[7] = FIG. 7F, pre-incubated with 1 μM PBB3, then 10 nM Example Compound 3b

T2 sequence (P05067 672-713 limits assumed): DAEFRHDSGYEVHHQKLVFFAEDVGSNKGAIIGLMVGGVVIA
T1 sequence (P10636 1-441 isoform P10636-8): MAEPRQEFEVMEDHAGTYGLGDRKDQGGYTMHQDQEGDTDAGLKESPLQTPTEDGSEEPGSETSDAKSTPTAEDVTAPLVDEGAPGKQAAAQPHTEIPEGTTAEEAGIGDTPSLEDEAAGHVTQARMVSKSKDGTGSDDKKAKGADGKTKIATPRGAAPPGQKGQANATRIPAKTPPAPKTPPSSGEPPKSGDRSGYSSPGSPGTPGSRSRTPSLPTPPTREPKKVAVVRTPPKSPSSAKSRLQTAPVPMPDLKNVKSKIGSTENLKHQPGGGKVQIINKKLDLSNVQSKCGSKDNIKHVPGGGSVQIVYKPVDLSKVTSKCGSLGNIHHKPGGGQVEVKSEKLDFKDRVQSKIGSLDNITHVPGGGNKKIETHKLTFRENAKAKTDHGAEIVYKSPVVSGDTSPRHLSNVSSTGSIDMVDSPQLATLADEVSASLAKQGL

SMILES	Fluorescence from Example Compound 3b observed (Aβ and tau deposits [1]; FIG. 7E)	Overlap between Fluorescence from Example Compound 3b and fluorescence from PBB3 (Aβ and tau deposits [1]; FIG. 7E)	Deposits labelled (Aβ and tau deposits [1])	Selectivity and affinity for tau deposits compared with PBB3 (Aβ and tau deposits [1])	Labelling of immune-positive NFTs and dystrophic neurites (tau aggregates [2])	Fluorescence from tested compound observed (tau aggregates [2])	Overlap between Fluorescence from tested compound and fluorescence from AT-100 observed (tau aggregates [2])	Fluorescence from AT-100 observed (tau aggregates [2])	Overlap between Fluorescence from tested compound and fluorescence from 4G8 observed (Aβ aggregates)	Fluorescence from tested compound observed (Aβ aggregates)	Fluorescence from 4G8 observed (Aβ aggregates)	Fluorescence from Example Compound 3b observed (tau aggregates [3])	Overlap between Fluorescence from Example Compound 3b and fluorescence from q-FTAA-CN (tau aggregates [3])	Fluorescence from Example Compound 3b observed (tau aggregates [4]; [7])	Fluorescence from Example Compound 3b observed (tau aggregates [4]; FIG. 7G, pre-incubated in PBS only, 10 nM Example Compound 3b)	Excitation and emission spectra when switching solvent from DMSO to PBS [5]	Deposits labelled (Aβ and tau deposits [6])	Fluorescence from PBB3 observed (Aβ and tau deposits [1]; FIG. 7E)	Fluorescence from PBB3 observed (tau aggregates [4]; [7])
CC[n+]1c(/C=C/c2ccc(-c3ccc(I)s3)s2)sc2ccccc21 [Example Compound 3b]	yes	no	tau deposits, NFTs and dystrophic neurites, displayed characteristic emission	higher selectivity and most likely a higher affinity for tau deposits than PBB3	labelled both immune-positive NFTs and dystrophic neurites	yes	yes	yes	no correlation and no	yes	yes	observed from the tau aggregates and could easily be observed from the q-FTAA-CN positive NFTs as well as from q-FTAA-CN negative dystrophic neurites and yes	yes	no observable Example Compound 3b fluorescence and no	fluorescence was observed from the tau aggregates and yes	–	–	–	–
COC(=O)c1ccc(-c2ccc(/C=C/c3nc4ccccc4s3)s2)s1 [Example Compound 8a]	–	–	–	–	labelled both immune-positive NFTs and dystrophic neurites	yes	yes	yes	no correlation and no	yes	yes	–	–	–	–	solvatochromatic behavior rendering a blue-shifted excitation spectrum, as well as a red-shifted emission spectrum	–	–	–
CNc1ccc(/C=C/C=C/c2nc3ccc(O)cc3s2)cn1 [PBB3, reference compound]	–	–	Aβ deposits were visualized by the fluorescence from PBB3	–	–	–	–	–	–	–	–	–	–	–	–	–	labelled both Aβ and tau deposits	yes	both the Aβ and tau deposits exhibited strong PBB3 fluorescence and yes
